Laboratory results: patent publication US10577349B2 (Sanford Burnham Prebys Medical Discovery Institute, priority 2015, dated 2020)
Read-outs that look alike come from different tables or passages of the source.

How the values were obtained:
[1] = biological target: HCV cap-independent translation; assay: In vitro translation assay, FF-HCV-Ren construct, cap-independent (Ren luciferase); type: biochemical, rabbit reticulocyte lysates
Method in brief: (§1)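 Rabbit reticulocyte lysate with -Met/-Leu translation mixes (1:1) was pre-incubated with compounds 1 h at room temperature, then programmed with 0.1 μg bicistronic RNA per well and translated 2 h at 30° C. FF luciferase (cap-dependent) and then Ren luciferase (IRES-driven) were read by Dual-Glo luminescence.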

[2] = biological target: EmCV Cap-dependent translation; assay: In vitro translation assay, FF-EmCV-Ren construct, cap-dependent (FF luciferase); type: biochemical, rabbit reticulocyte lysates
Method in brief: as §1

[3] = test system: parental and BRAFi-resistant melanoma cultures (A375, WM793, Lu1205); assay: 2D growth and colony-forming efficiency in parental and BRAFi-resistant melanoma cultures; type: cell-based, human; settings: parental (sensitive) and BRAFi-resistant cultures
Description: For the colony formation assay, cells were plated in triplicate at 500 cells/well in 6-well plates and grown for 16 h before compounds were added for 1-2 weeks, depending on cell line. Colonies were stained with Accustain Crystal Violet solution (Sigma-Aldrich) for 30 min. Plates were rinsed with water, and colonies (>50 cells per clone) were counted. Colony formation efficiency was calculated relative to the number of colonies in control (DMSO)-treated wells. For soft agar assays, melanoma cells were mixed with agar at a final concentration of 0.35% and layered on top of 0.7% agar in 6-well plates. Media supplemented with different compounds was added to plates and changed once per week. After 4 weeks, colonies were counted in 10 random high-power fields.
To confirm the effect of Compound 38 on the eIF4F complex in BRAFi resistant cultures on neoplastic growth, Compound 38 effectiveness on their two-dimensional (2D) growth in vitro was assessed. […] Parental and BRAFi-resistant NF1-mutant melanomas (A) were monitored for their response to Compound 38 at the indicated concentrations and for their ability to form CFE (B) (A375: FIG. 16A and FIG. 16B, WM793: FIG. 17A and FIG. 17B, Lu1205: FIG. 18A and FIG. 18B). Effectiveness of Compound 38 in NF1-mutant melanoma was further confirmed in primary cultures (FIG. 19A and FIG. 19B).

[4] = Hepatic Microsome Stability Human; type: in vitro ADME
[5] = test system: Nras^Q61K/Ink4a^−/− melanoma tumors; assay: Inducible Nras^Q61K/Ink4a^−/− genetic melanoma model; type: in vivo, mice; settings: 0.5 mg/kg intraperitoneal twice a week from week 11; compared with control nontreated group
Description: In vivo, Compound 38 was evaluated using an inducible Nras^Q61K/Ink4a^−/− genetic model in which melanoma tumors emerge within 16 to 20 weeks (FIG. 20). Administration of Compound 38 only, starting 11 weeks after genetic inactivation of Ink4a and induction of […] (about 10-14 days prior to tumor appearance), delayed tumor onset (from 20-26 weeks), and reduced tumor incidence, by 50%, compared with the control nontreated group. Mice of the Nras^Q61K:Ink4a^−/− genotype or WT mice (38-40 mice for each genotype) were administered vehicle or Compound 38 at 0.5 mg/kg by intraperitoneal injection twice a week starting at week 11 after Nras^Q61K activation and Ink4a inactivation. Tumor development was monitored twice per week. Latency and frequency of melanoma development over the 21-week treatment period (weeks 11-32) are shown.

eIF4F complex = biological target: T1, eIF4F complex (Mus musculus, UniProt Q6NZJ6); assay: m7GTP pull-down assay, WT or 4E-BP DKO MEFs; type: cell-based; settings: 6 hours, Torin1 250 nmol/L
T1 construct: endogenous in cells; host or cells: WT and 4E-BP1/2 double-knock-out MEFs
T1 sequence (Q6NZJ6 whole entry, one chain of several): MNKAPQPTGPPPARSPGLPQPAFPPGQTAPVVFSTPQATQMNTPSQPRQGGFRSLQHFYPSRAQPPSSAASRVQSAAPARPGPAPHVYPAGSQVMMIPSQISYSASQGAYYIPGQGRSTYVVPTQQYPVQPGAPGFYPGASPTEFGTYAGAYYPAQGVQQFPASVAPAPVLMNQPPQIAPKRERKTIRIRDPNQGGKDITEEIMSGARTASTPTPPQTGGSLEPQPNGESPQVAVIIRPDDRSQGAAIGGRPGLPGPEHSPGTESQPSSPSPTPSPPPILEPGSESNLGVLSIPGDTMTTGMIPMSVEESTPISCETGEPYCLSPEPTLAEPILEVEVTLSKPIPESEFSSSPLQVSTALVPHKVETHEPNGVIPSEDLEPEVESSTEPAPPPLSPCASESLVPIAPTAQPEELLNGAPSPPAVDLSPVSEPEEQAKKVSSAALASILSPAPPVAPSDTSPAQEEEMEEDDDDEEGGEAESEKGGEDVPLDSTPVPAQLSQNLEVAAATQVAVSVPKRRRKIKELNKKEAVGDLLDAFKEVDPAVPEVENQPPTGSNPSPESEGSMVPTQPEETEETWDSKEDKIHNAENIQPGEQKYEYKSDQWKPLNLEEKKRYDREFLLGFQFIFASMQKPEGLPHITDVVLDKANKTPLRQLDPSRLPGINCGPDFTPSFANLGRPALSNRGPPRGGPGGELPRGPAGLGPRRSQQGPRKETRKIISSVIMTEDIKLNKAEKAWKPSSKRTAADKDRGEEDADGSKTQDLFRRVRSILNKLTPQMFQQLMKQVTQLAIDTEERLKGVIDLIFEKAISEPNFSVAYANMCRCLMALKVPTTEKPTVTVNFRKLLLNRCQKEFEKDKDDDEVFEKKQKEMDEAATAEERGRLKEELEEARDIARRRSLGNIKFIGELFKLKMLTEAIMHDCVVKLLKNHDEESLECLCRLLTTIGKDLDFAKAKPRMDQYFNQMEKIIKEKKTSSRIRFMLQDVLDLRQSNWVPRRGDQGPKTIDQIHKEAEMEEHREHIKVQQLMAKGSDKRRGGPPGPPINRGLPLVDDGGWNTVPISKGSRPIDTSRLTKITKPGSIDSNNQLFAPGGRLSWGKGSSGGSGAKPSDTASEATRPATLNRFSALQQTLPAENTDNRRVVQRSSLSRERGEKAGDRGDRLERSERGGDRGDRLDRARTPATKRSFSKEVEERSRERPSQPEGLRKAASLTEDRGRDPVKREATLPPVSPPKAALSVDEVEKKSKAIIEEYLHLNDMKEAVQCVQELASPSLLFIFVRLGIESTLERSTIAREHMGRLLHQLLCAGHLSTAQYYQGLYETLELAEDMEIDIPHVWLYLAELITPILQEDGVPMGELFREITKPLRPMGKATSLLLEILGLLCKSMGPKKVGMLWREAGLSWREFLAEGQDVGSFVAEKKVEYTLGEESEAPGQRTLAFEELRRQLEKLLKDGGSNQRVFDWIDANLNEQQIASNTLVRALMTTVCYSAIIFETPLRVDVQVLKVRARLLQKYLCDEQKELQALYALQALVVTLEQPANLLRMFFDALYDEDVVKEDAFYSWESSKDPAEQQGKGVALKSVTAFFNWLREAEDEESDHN
Description: As previously described (Dowling R J, et al. mTORC1-mediated cell proliferation, but not cell growth, controlled by the 4E-BPs. Science. 2010; 328:1172-6), cells growing in 100 mm plates were washed (cold PBS), collected, and lysed in 50 mM MOPS/KOH (7.4), 100 mM NaCl, 50 mM NaF, 2 mM EDTA, 2 mM EGTA, 1% NP40, 1% Na-DOC, 7 mM β-mercaptoethanol, protease inhibitors and phosphatase inhibitor cocktail (Roche). Lysates were incubated with m7-GDP-agarose beads (Jena Bioscience) for 20 minutes, washed 4 times with the washing buffer containing 50 mM MOPS/KOH (7.4), 100 mM NaCl, 50 mM NaF, 0.5 mM EDTA, 0.5 mM EGTA, 7 mM (3-mercaptoethanol, 0.5 mM PMSF, 1 mM Na3VO4 and 0.1 mM GTP, and bound proteins were eluted by boiling the beads in loading buffer. m7-GDP-agarose pulled down material was analyzed by Western blot analysis.
Indicated cultures (WT or DKO 4E-BP) were treated with Torin1 (250 nmol/L) or indicated Compound 38 concentrations for 6 hours. Western blots show respective protein levels in total cell lysates or following pull-down using m^7GTP agarose beads. […] P3-Actin served as a loading control and to exclude contamination in m^7GTP pull-down.

[6] = test system: E1A/RAS-transformed 4E-BP DKO MEFs; assay: Proliferation of E1A/Ras-transformed MEFs (BrdUrd incorporation); type: cell-based; settings: 48 hours
Description: E1A/Ras-transformed WT or 4e-bp1/4e-bp2 DKO MEFs were treated with either Torin1 or Compound 38 at indicated concentrations and cell proliferation was measured 48 hours later with the aid of BrdUrd incorporation. Values were normalized to DMSO-treated triplicates. Error bars, SD (n=3).

PAMPA Permeability = type: in vitro ADME

For `O=C(/C=C/c1cncc(F)c1)c1c(-c2ccccc2)c2cc(Cl)ccc2[nH]c1=O` [Compound 38, 6-Chloro-3-[3-(5-fluoro-pyridin-3-yl)-acryloyl]-4-phenyl-1H-quinolin-2-one], the IC50 [1] was 2 to 10 µM, the IC50 [2] was 2 to 10 µM and the “Growth in 2D and colony-forming efficiency (CFE)” value [3] was “effectively attenuated in both parental (sensitive) and resistant cultures”. The “Hepatic Microsome Stability (% Remaining at 1 hr) Human” value [4] was 24.12 % Remaining, the “Hepatic Microsome Stability (% Remaining at 1 hr) Human (no NADPH)” value ([4]; no NADPH) was 57.84 % Remaining and the reduced tumor incidence [5] was 50%. For the same molecule, the “tumor onset, delayed (from - to)” value [5] was 20-26 weeks, the “eIF4G1:eIF4E association (m7GTP pull-down)” value (eIF4F complex) was “reduced eIF4G1:eIF4E association in both WT and 4E-BP DKO MEFs” and the “proliferation of E1A/RAS-transformed 4E-BP DKO MEFs” value [6] was “attenuated the proliferation”. The Papp (PAMPA Permeability; Donor pH 5.0, Acceptor pH 7.4, read-out: PAMPA Permeability, Pe, Donor pH 5.0) was 11100 nm/s, the Papp (PAMPA Permeability; Donor pH 6.2, Acceptor pH 7.4, read-out: PAMPA Permeability, Pe, Donor pH 6.2) was 11500 nm/s and the Papp (PAMPA Permeability; pH 7.4, Donor pH 7.4, Acceptor pH 7.4, read-out: PAMPA Permeability, Pe, Donor pH 7.4) was 8200 nm/s.
